The source of these data is US20260137698A1, “CYCLIN-DEPENDENT KINASE 7 INHIBITORS” (JOINT STOCK COMPANY «BIOCAD», priority 2022, published 2026).

Series [1] is described as follows: General cytotoxicity on primary differentiated HepaRG cells (72 h). Type of series: cell-based. Particulars: human, general toxicity, mean value from several measurements. In short, it runs like this:
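Test compounds spanning 200 μM to 0.2 nM were incubated for 72 hours with primary differentiated HepaRG cells. Cells had been kept one week in supplemented hepatic medium and seeded the night before at 25×10^3 per well, and viability was then measured.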

For a further series, the target named is CDK2/Cyclin A (Homo sapiens, UniProt P24941). In words: Inhibition of CDK2/Cyclin A kinase activity (ADP-Glo). It is filed as biochemical. The method, boiled down: (§1)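 ADP-Glo luminescence quantified ATP consumption after a 40-60 minute, 25° C. reaction with ATP plus CDKtide, Histone H1 or PDKtide, following a 10-minute compound–kinase preincubation in DTT-supplemented kinase buffer A. Compounds spanned 11 concentrations from 50 μM in 4-fold dilutions; IC50 fitted to a four-parameter model.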
(ADP-Glo first removes unused ATP, then detects ADP through luciferase.)

In series [2] the test system is MDA-MB-468 (triple negative breast cancer). In words: Antiproliferative assay on MDA-MB-468 cells (AlamarBlue, 96 h). Type of series: cell-based. The note with it: Homo sapiens, mean value from several measurements. (Alamar Blue is a resazurin reagent that responds to reducing activity.)
In a further series the target is CDK7/Cyclin H/MNAT1 (Homo sapiens, UniProt P50613). The experiment in a line: Inhibition of CDK7/Cyclin H/MNAT1 kinase activity (ADP-Glo). Type of series: biochemical. The method, boiled down: as §1
[3] abbreviates: mean of multiple measurement series, ATP 50 μM, read-out: CDK2/Cyclin A IC50.
The mark [4] stands for this setting: mean value from several measurements, read-out: IC50 CDK2/Cyclin A.
The mark [5] stands for this setting: mean of multiple measurement series, ATP 10 μM, read-out: CDK7/Cyclin H/MNAT1 IC50.
Where [6] appears, read: mean value from several measurements, read-out: IC50 CDK7/Cyclin H/MNAT.

Structures are written as SMILES. Read-outs that look alike come from different tables or passages of the source.

Chain of CDK7/Cyclin H/MNAT1 (P50613 whole entry): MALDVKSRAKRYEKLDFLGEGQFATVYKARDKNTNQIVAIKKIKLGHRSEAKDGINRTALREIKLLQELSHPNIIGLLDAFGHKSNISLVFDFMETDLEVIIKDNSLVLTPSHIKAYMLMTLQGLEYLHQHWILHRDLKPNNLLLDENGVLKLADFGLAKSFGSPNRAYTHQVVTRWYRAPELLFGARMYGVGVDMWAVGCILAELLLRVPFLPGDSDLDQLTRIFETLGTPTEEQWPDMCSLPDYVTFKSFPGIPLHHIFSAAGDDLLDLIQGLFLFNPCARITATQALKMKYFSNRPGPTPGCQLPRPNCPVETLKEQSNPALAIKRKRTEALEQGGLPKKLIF
Chain of CDK7/Cyclin H/MNAT1 (P51946 whole entry partner): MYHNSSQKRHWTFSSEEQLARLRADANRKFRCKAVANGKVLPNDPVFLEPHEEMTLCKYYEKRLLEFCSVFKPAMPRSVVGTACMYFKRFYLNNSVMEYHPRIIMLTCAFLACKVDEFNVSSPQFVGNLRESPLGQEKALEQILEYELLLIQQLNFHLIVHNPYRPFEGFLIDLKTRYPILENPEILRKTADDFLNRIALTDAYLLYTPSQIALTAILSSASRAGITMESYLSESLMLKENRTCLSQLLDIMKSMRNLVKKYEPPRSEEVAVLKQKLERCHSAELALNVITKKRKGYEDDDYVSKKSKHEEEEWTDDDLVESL
Chain of CDK7/Cyclin H/MNAT1 (P51948 whole entry partner): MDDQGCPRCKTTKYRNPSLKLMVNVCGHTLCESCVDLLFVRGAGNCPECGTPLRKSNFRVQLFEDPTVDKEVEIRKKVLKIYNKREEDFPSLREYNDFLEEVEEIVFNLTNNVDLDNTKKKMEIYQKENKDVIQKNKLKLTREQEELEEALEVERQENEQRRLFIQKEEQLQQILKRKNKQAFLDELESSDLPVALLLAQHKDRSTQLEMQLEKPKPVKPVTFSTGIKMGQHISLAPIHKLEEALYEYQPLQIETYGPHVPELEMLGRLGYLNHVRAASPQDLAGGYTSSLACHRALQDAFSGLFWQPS

On to `CN1CCCc2c(-c3nc(N[C@H]4CCC(C)(C)NC4)ncc3C(F)(F)F)c[nH]c2C1=O` [CDK7_1187, 3-(2-{[(3S)-6,6-dimethylpiperidin-3-yl]amino}-5-(trifluoromethyl)py-rimidin-4-yl)-7-methyl-1H,4H,5H,6H,7H, 8H-pyrrolo[2,3-c]azepin-8-one], for which the CC50 (as a rule, the concentration that lowers cell viability or growth by half) at 72 h in series [1] is over 2000 nM. In addition, the IC50 at CDK2/Cyclin A (setting [3]) is 15700 nM; at CDK2/Cyclin A (setting [4]), over 200 nM; in series [2] it was under 10 nM; on CDK7/Cyclin H/MNAT1 (setting [5]), under 5 nM; on CDK7/Cyclin H/MNAT1 (setting [6]), under 5 nM.

In series [1], `Cn1cc(N2CCCc3c(-c4nc(N[C@H]5CCCNC5)ncc4C(F)(F)F)c[nH]c3C2=O)cn1` [CDK7_955, 7-(1-methyl-1H-pyrazol-4-yl)-3-(2-{[(3S)-piperidin-3-yl]amino}-5-(trifluoromethyl)py-rimidin-4-yl)-1H,4H,5H,6H,7H, 8H-pyrrolo[2,3-c]azepin-8-one] came in with a CC50 at 72 h of over 2000 nM. The IC50 at CDK2/Cyclin A (setting [4]) was over 200 nM; in series [2], 100 to 1000 nM; at CDK7/Cyclin H/MNAT1 (setting [6]) it was 5 to 50 nM.

As to `O=C1c2[nH]cc(-c3nc(NC4CCCNC4)ncc3C(F)(F)F)c2CCCN1C1CC1` (stereo not drawn) [CDK7_1188], in series [1], the CC50 at 72 h is over 2000 nM. Also, the IC50 on CDK2/Cyclin A (setting [4]) is over 200 nM; in series [2], under 10 nM; on CDK7/Cyclin H/MNAT1 (setting [6]), under 5 nM.

Turning to `O=c1c2[nH]cc(-c3nc(N[C@H]4CCCNC4)ncc3C(F)(F)F)c2ccn1Cc1ccccc1` [CDK7_961, 6-benzyl-3-(2-{[(3S)-piperidin-3-yl]amino}-5-(trifluoromethyl)py-rimidin-4-yl)-1H,6H,7H-pyrrolo[2,3-c]pyridin-7-one], the half-maximal cytotoxic concentration (CC50) at 72 h in series [1] is 100 to 500 nM. Also, the IC50 at CDK2/Cyclin A (setting [3]) was 3700 nM; at CDK2/Cyclin A (setting [4]), over 200 nM; in series [2], under 10 nM; on CDK7/Cyclin H/MNAT1 (setting [5]), under 5 nM; on CDK7/Cyclin H/MNAT1 (setting [6]) it was under 5 nM.

With `O=C1c2[nH]cc(-c3nc(NC4CCCNC4)ncc3C(F)(F)F)c2CCCN1c1nccs1` (stereo not drawn) [CDK7_1172], the CC50 at 72 h in series [1] is over 2000 nM. For the same molecule, the IC50 on CDK2/Cyclin A (setting [4]) was over 200 nM; in series [2], 10 to 100 nM; on CDK7/Cyclin H/MNAT1 (setting [6]), under 5 nM.

Consider `Cn1cc(-n2ccc3c(-c4nc(N[C@H]5CCCNC5)ncc4C(F)(F)F)c[nH]c3c2=O)cn1` [CDK7_959, 6-(1-methyl-1H-pyrazol-4-yl)-3-(2-{[(3S)-piperidin-3-yl]amino}-5-(trifluoromethyl)py-rimidin-4-yl)-1H,6H,7H-pyrrolo[2,3-c]pyridin-7-one], for which, in series [1], the CC50 at 72 h was over 2000 nM. The IC50 on CDK2/Cyclin A (setting [3]) was 5260 nM; at CDK2/Cyclin A (setting [4]), over 200 nM; in series [2], under 10 nM; on CDK7/Cyclin H/MNAT1 (setting [5]) it was under 5 nM; on CDK7/Cyclin H/MNAT1 (setting [6]), under 5 nM.

For `O=C1c2[nH]cc(-c3nc(N[C@H]4CCC5(CC5)NC4)ncc3C(F)(F)F)c2CCCN1C1CC1` [CDK7_1276, 3-(2-{[(6S)-4-azaspiro[2.5]octan-6-yl]amino}-5-(trifluoromethyl)py-rimidin-4-yl)-7-cyclopropyl-1H,4H,5H,6H,7H, 8H-pyrrolo[2,3-c]azepin-8-one], the CC50 at 72 h in series [1] was over 2000 nM. Further, the IC50 was 6220 nM on CDK2/Cyclin A (setting [3]); over 200 nM on CDK2/Cyclin A (setting [4]); under 10 nM in series [2]; under 5 nM on CDK7/Cyclin H/MNAT1 (setting [5]); under 5 nM on CDK7/Cyclin H/MNAT1 (setting [6]).

The molecule `Cn1cc(N2CCCc3c(-c4nc(N[C@H]5CCC(C)(C)NC5)ncc4C(F)(F)F)c[nH]c3C2=O)cn1` [CDK7_1122, 3-(2-{[(3S)-6,6-dimethylpiperidin-3-yl]amino}-5-(trifluoromethyl)py-rimidin-4-yl)-7-(1-methyl-1H-pyrazol-4-yl)-1H,4H,5H,6H,7H, 8H-pyrrolo[2,3-c]azepin-8-one] registered a CC50 at 72 h in series [1] of over 2000 nM. The IC50 in series [2] was in the range of 100 to 1000 nM; at CDK7/Cyclin H/MNAT1 (setting [6]), 5 to 50 nM.

Consider `CC1(C)CC[C@H](Nc2ncc(C(F)(F)F)c(-c3c[nH]c4c3CCCN(CC3CC3)C4=O)n2)CN1` [CDK7_1227, 7-(cyclopropylmeth-yl)-3-(2-{[(3S)-6,6-dimethylpiperidin-3-yl]amino}-5-(trifluoromethyl)py-rimidin-4-yl)-1H,4H,5H,6H,7H, 8H-pyrrolo[2,3-c]azepin-8-one], for which the CC50 at 72 h in series [1] is over 2000 nM. Also, the IC50 was over 200 nM on CDK2/Cyclin A (setting [4]), 10 to 100 nM in series [2] and under 5 nM at CDK7/Cyclin H/MNAT1 (setting [6]).

Molecule `CC(C)N1CCCc2c(-c3nc(N[C@H]4CCC(C)(C)NC4)ncc3C(F)(F)F)c[nH]c2C1=O` [CDK7_1229, 3-(2-{[(3S)-6,6-dimethylpiperidin-3-yl]amino}-5-(trifluoromethyl)py-rimidin-4-yl)-7-(propan-2-yl)-1H,4H,5H,6H,7H, 8H-pyrrolo[2,3-c]azepin-8-one] registered a CC50 at 72 h in series [1] of over 2000 nM. For the same molecule, the IC50 on CDK2/Cyclin A (setting [3]) was 22900 nM; at CDK2/Cyclin A (setting [4]), over 200 nM; in series [2] it was 10 to 100 nM; on CDK7/Cyclin H/MNAT1 (setting [5]), under 5 nM; on CDK7/Cyclin H/MNAT1 (setting [6]) it was under 5 nM.

Turning to `Cn1cc(-n2ccc3c(-c4nc(N[C@H]5CCC(C)(C)NC5)ncc4C(F)(F)F)c[nH]c3c2=O)cn1` [CDK7_1123, 3-(2-{[(3S)-6,6-dimethylpiperidin-3-yl]amino}-5-(trifluoromethyl)py-rimidin-4-yl)-6-(1-methyl-1H-pyrazol-4-yl)-1H,6H,7H-pyrrolo[2,3-c]pyridin-7-one], the CC50 at 72 h in series [1] was over 2000 nM. Besides, the IC50 is 35200 nM at CDK2/Cyclin A (setting [3]); over 200 nM at CDK2/Cyclin A (setting [4]); under 10 nM in series [2]; under 5 nM on CDK7/Cyclin H/MNAT1 (setting [5]); under 5 nM on CDK7/Cyclin H/MNAT1 (setting [6]).

In series [1], `CCN1CCCc2c(-c3nc(N[C@H]4CCC(C)(C)NC4)ncc3C(F)(F)F)c[nH]c2C1=O` [CDK7_1259, 3-(2-{[(3S)-6,6-dimethylpiperidin-3-yl]amino}-5-(trifluoromethyl)py-rimidin-4-yl)-7-ethyl-1H,4H,5H,6H,7H, 8H-pyrrolo[2,3-c]azepin-8-one] came in with a CC50 at 72 h of over 2000 nM. The IC50 is over 200 nM at CDK2/Cyclin A (setting [4]), 10 to 100 nM in series [2] and under 5 nM on CDK7/Cyclin H/MNAT1 (setting [6]).

Regarding `CC(C)N1CCCc2c(-c3nc(N[C@H]4CCC5(CC5)NC4)ncc3C(F)(F)F)c[nH]c2C1=O` [CDK7_1277, 3-(2-{[(6S)-4-azaspiro[2.5]octan-6-yl]amino}-5-(trifluoromethyl)py-rimidin-4-yl)-7-(propan-2-yl)-1H,4H,5H,6H,7H, 8H-pyrrolo[2,3-c]azepin-8-one], the CC50 at 72 h in series [1] was over 2000 nM. Also, the IC50 on CDK2/Cyclin A (setting [3]) was 14300 nM; at CDK2/Cyclin A (setting [4]) it was over 200 nM; in series [2] it was under 10 nM; at CDK7/Cyclin H/MNAT1 (setting [5]), under 5 nM; at CDK7/Cyclin H/MNAT1 (setting [6]) it was under 5 nM.

`CC1(C)CC[C@H](Nc2ncc(C(F)(F)F)c(-c3c[nH]c4c3CCCN(C3CC3)C4=O)n2)CN1` [CDK7_1225, 7-cyclopropyl-3-(2-{[(3S)-6,6-dimethylpiperidin-3-yl]amino}-5-(trifluoromethyl)py-rimidin-4-yl)-1H,4H,5H,6H,7H, 8H-pyrrolo[2,3-c]azepin-8-one] came in with a CC50 at 72 h in series [1] of over 2000 nM. Further, the IC50 is 13900 nM at CDK2/Cyclin A (setting [3]); over 200 nM at CDK2/Cyclin A (setting [4]); 10 to 100 nM in series [2]; under 5 nM on CDK7/Cyclin H/MNAT1 (setting [5]); under 5 nM at CDK7/Cyclin H/MNAT1 (setting [6]).

Take `CC1CCc2c(-c3nc(N[C@H]4CCCNC4)ncc3C(F)(F)F)c[nH]c2C(=O)N1C` (stereo partly drawn) [CDK7_1254, 6,7-dimethyl-3-(2-{[(3S)-piperidin-3-yl]amino}-5-(trifluoromethyl)py-rimidin-4-yl)-1H,4H,5H,6H,7H, 8H-pyrrolo[2,3-c]azepin-8-one]: the CC50 at 72 h in series [1] is over 2000 nM. Also, the IC50 at CDK2/Cyclin A (setting [4]) is over 200 nM; in series [2], 10 to 100 nM; on CDK7/Cyclin H/MNAT1 (setting [6]) it was under 5 nM.

In turn, `CN1CCCc2c(-c3nc(N[C@H]4CCCNC4)ncc3C(F)(F)F)c[nH]c2C1=O` [CDK7_953, 7-methyl-3-(2-{[(3S)-piperidin-3-yl]amino}-5-(trifluoromethyl)py-rimidin-4-yl)-1H,4H,5H,6H,7H, 8H-pyrrolo[2,3-c]azepin-8-one] registered a CC50 at 72 h in series [1] of 500 to 2000 nM. The IC50 on CDK2/Cyclin A (setting [3]) is 5830 nM; on CDK2/Cyclin A (setting [4]), over 200 nM; in series [2], under 10 nM; at CDK7/Cyclin H/MNAT1 (setting [5]), under 5 nM; at CDK7/Cyclin H/MNAT1 (setting [6]), under 5 nM.

Regarding `O=C1c2[nH]cc(-c3nc(N[C@H]4CCCNC4)ncc3C(F)(F)F)c2CCCN1c1ccccn1` [CDK7_1176, 3-(2-{[(3S)-piperidin-3-yl]amino}-5-(trifluoromethyl)py-rimidin-4-yl)-7-(pyridin-2-yl)-1H,4H,5H,6H,7H, 8H-pyrrolo[2,3-c]azepin-8-one], the CC50 at 72 h in series [1] was over 2000 nM. The IC50 lay in the range of 100 to 1000 nM in series [2] and 5 to 50 nM on CDK7/Cyclin H/MNAT1 (setting [6]).
